Assay results published in patent publication US20240327413A1, “NLRP3 MODULATORS” (Zomagen Biosciences Ltd, priority 2021, published 2024).

The compounds below were run on IL-1b (assay: Human Monocyte IL-1b Assay (fresh human whole blood, LPS priming, ATP stimulation, ELISA)). Conditions: Homo sapiens, read-out: IL-1b (IC50).
Type: cell-based
Experimental: Serially diluted testing compounds were incubated with […] of fresh human whole blood for 0.5 hours. Cells were primed with 100 ng/mL lipopolysaccharide (LPS) for 3.5 hours at 37° C. followed by stimulation with 5 mM ATP for an additional 45 minutes. The concentration of IL-1b concentration in the supernatant was determined with commercially available ELISA kits. Negative controls are wells without stimulation, while positive controls are wells with stimulation but only DMSO without compounds added. After background subtraction, compound treatment wells were then normalized to the positive controls for IC50 calculations.

Cc1ccc(-c2nnc(OC3CCCN(C)C3)c3ccccc23)c(O)c1 (centres unmarked) [Compound 23, 5-methyl-2-(4-((1-methylpiperidin-3-yl)oxy)phthalazin-1-yl)phenol] gave an IC50 of 300 to 3000 nM.

Same assay, conditions: fresh human whole blood, 100 ng/mL LPS 3.5 hours, then 5 mM ATP 45 minutes, IL-1b in supernatant by ELISA, read-out: IL-1b (IC50)

Compared with Cc1ccc(-c2nnc(N(C)[C@@H]3CCCN(C)C3)c3ccccc23)c(O)c1 [Compound 12, (R)-5-methyl-2-(4-(methyl(1-methylpiperidin-3-yl)amino)phthalazin-1-yl)phenol], Cc1ccc(-c2nnc(N[C@@H]3CCCN(C)C3)c3ccccc23)c(O)c1 [Compound 2, (R)-5-methyl-2-(4-((1-methylpiperidin-3-yl)amino)phthalazin-1-yl)phenol] is lower in IC50: 300 to 3000 nM for the first, less than 300 nM for the second.

First: CN1CCC[C@@H](Nc2nnc(-c3ccc4c(c3O)CCC4)c3ccccc23)C1 [Compound 4, (R)-5-(4-((1-methylpiperidin-3-yl)amino)phthalazin-1-yl)-2,3-dihydro-1H-inden-4-ol]
Second: CN1CCC[C@@H](Nc2nnc(-c3ccc4c(c3O)CCC4)c3cccn23)C1 [Compound 27, (R)-5-(4-((1-methylpiperidin-3-yl)amino)pyrrolo[1,2-d][1,2,4]triazin-1-yl)-2,3-dihydro-1H-inden-4-ol]
The IC50 of the first is lower: less than 300 nM for the first, 300 to 3000 nM for the second.

Cc1ccc(-c2nnc(N[C@@H]3CCCN(C)C3)c3cscc23)c(O)c1 [Compound 21, (R)-5-methyl-2-(4-((1-methylpiperidin-3-yl)amino)thieno[3,4-d]pyridazin-1-yl)phenol] and CN1CCC[C@@H](Nc2nnc(-c3ccc(C(F)(F)F)cc3O)c3cscc23)C1 [Compound 22, (R)-2-(4-((1-methylpiperidin-3-yl)amino)thieno[3,4-d]pyridazin-1-yl)-5-(trifluoromethyl)phenol] cannot be ordered by IC50: less than 300 nM for the first, less than 300 nM for the second.

Cc1cc(C)c(-c2nnc(N[C@@H]3CCCN(C)C3)n3cccc23)c(O)c1 [Compound 13, (R)-3,5-dimethyl-2-(4-((1-methylpiperidin-3-yl)amino)pyrrolo[1,2-d][1,2,4]triazin-1-yl)phenol] and Cc1cc(O)c(-c2nnc(N[C@@H]3CCCN(C)C3)n3cccc23)c(F)c1 [Compound 14, (R)-3-fluoro-5-methyl-2-(4-((1-methylpiperidin-3-yl)amino)pyrrolo[1,2-d][1,2,4]triazin-1-yl)phenol] cannot be ordered by IC50: less than 300 nM for the first, less than 300 nM for the second.

Compared with CCOC(=O)c1cc(C)ccc1-c1nnc(N[C@@H]2CCCN(C)C2)c2ccccc12 [Compound 6, ethyl (R)-5-methyl-2-(4-((1-methylpiperidin-3-yl)amino)phthalazin-1-yl)benzoate], Cc1cc(O)c(-c2nnc(N[C@@H]3CCCN(C)C3)c3ccccc23)cc1F [Compound 5, (R)-4-fluoro-5-methyl-2-(4-((1-methylpiperidin-3-yl)amino)phthalazin-1-yl)phenol] is lower in IC50: 3000 to 10000 nM for the first, less than 300 nM for the second.

Cc1ccc(-c2nnc(N[C@@H]3CCCN(C)C3)c3c2CCC3)c(O)c1F [Compound 10, (R)-2-fluoro-3-methyl-6-(4-((1-methylpiperidin-3-yl)amino)-6,7-dihydro-5H-cyclopenta[d]pyridazin-1-yl)phenol] and Cc1ccc(-c2nnc(N[C@@H]3CCCN(C)C3)c3c2CCC3)c(O)c1 [Compound 8, (R)-5-methyl-2-(4-((1-methylpiperidin-3-yl)amino)-6,7-dihydro-5H-cyclopenta[d]pyridazin-1-yl)phenol] cannot be ordered by IC50: less than 300 nM for the first, less than 300 nM for the second.

CN1CCC[C@@H](Nc2nnc(-c3ccc(C(F)(F)F)cc3O)c3sccc23)C1 [Compound 20, (R)-2-(4-((1-methylpiperidin-3-yl)amino)thieno[2,3-d]pyridazin-7-yl)-5-(trifluoromethyl)phenol] and CN1CCC[C@@H](Nc2nnc(-c3ccc(C(F)(F)F)cc3O)c3ccsc23)C1 [Compound 19, (R)-2-(7-((1-methylpiperidin-3-yl)amino)thieno[2,3-d]pyridazin-4-yl)-5-(trifluoromethyl)phenol] cannot be ordered by IC50: less than 300 nM for the first, less than 300 nM for the second.

Cc1ccc(-c2nnc(N[C@@H]3CCCN(C)C3)c3c2CCCC3)c(O)c1 [Compound 11, (R)-5-methyl-2-(4-((1-methylpiperidin-3-yl)amino)-5,6,7,8-tetrahydrophthalazin-1-yl)phenol] and Cc1cc(C)c(-c2nnc(N[C@@H]3CCCN(C)C3)c3c2CCC3)c(O)c1 [Compound 7, 3,5-dimethyl-2-(4-(((R)-1-methylpiperidin-3-yl)amino)-6,7-dihydro-5H-cyclopenta[d]pyridazin-1-yl)phenol] cannot be ordered by IC50: less than 300 nM for the first, less than 300 nM for the second.

Cc1cc(C)c(-c2nnc(N[C@@H]3CCCN(C)C3)c3ccccc23)c(O)c1 [Compound 1, 3,5-dimethyl-2-(4-(((R)-1-methylpiperidin-3-yl)amino)phthalazin-1-yl)phenol] and Cc1ccc(-c2nnc(N[C@@H]3CCCN(C)C3)n3cccc23)c(O)c1 [Compound 24, (R)-5-methyl-2-(4-((1-methylpiperidin-3-yl)amino)pyrrolo[1,2-d][1,2,4]triazin-1-yl)phenol] cannot be ordered by IC50: less than 300 nM for the first, less than 300 nM for the second.

For Cc1cc(O)c(-c2nnc(N[C@@H]3CCCN(C)C3)n3cccc23)cc1F [Compound 26, (R)-4-fluoro-5-methyl-2-(4-((1-methylpiperidin-3-yl)amino)pyrrolo[1,2-d][1,2,4]triazin-1-yl)phenol], the IC50 was 300 to 3000 nM.
